Patent US20080076847A1, “Polymerizable compositions with acylgermanes as initiatiors” (IVOCLAR VIVADENT AG, priority 2006, published 2008)
Like-named read-outs stand apart in the source and are kept apart here.

Legend:
[1] = Photoinitiator activity by photo-DSC
Method: The activity of the photoinitiators was measured by means of photo-DSC (Differential Scanning Calorimetry) measurements on a DSC-50 device from Shimadzu, wherein the samples were irradiated alternatively with different dental lamps (Astalis 3: halogen lamp, wavelength range 400-500 nm, intensity 530 mW/cm^2; Bluephase C8: LED, wavelength range 430-490 nm, intensity 1100 mW/cm^2; Ivoclar Vivadent AG). The activity is characterized by the time of peak maximum (tmax), the polymerization rate (RP) which corresponds to the peak height, and the double bond conversion (DBC). The respective photoinitiators were dissolved in a resin mixture of D3MA:UDMA:bis-GMA=1:1:1 and then measured in an aluminium crucible by means of DSC. […]

[2] = known photoinitiators, longest-wave maximum; cited from earlier work
[3] = UV-VIS absorption maximum; format: physicochemical; details: longest-wave maximum
[4] = Astralis 3 lamp (400-500 nm), 0.022 mmol PI per gram of resin
[5] = Bluephase C8 lamp (430-490 nm), 0.022 mmol PI per gram of resin

## Cc1cc(C)c(C(=O)P(=O)(C(=O)c2c(C)cc(C)cc2C)c2ccccc2)c(C)c1 [Irg 819, bis(2,4,6-trimethylbenzoyl)phenylphosphine oxide, reference compound]
[1]; [4]
  DBC (double bond conversion): 59%
  Rp × 10^−3 (polymerization rate): 67.5 mol/(l × s)
[1]; [5]
  DBC (double bond conversion): 45%
  Rp × 10^−3 (polymerization rate): 43.5 mol/(l × s)
[1]; PI concentration 0.0014 mmol/g
  DBC (double bond conversion): 42%
  Rp × 10^−3 (polymerization rate): 30.4 mol/(l × s)
[1]; PI concentration 0.0055 mmol/g
  DBC (double bond conversion): 48%
  Rp × 10^−3 (polymerization rate): 48.3 mol/(l × s)
[2]
  absorption maximum: 397 nm

## [CH3][Ge]([CH3])([CH3])[C](=O)c1ccccc1 [Mono-AG, benzoyltrimethylgermanium]
[1]; [4]
  DBC (double bond conversion): 56%
  Rp × 10^−3 (polymerization rate): 51.0 mol/(l × s)
[1]; [5]
  DBC (double bond conversion): 49%
  Rp × 10^−3 (polymerization rate): 48.3 mol/(l × s)
[1]; PI concentration 0.0014 mmol/g
  DBC (double bond conversion): 30%
  Rp × 10^−3 (polymerization rate): 16.4 mol/(l × s)
[1]; PI concentration 0.0055 mmol/g
  DBC (double bond conversion): 48%
  Rp × 10^−3 (polymerization rate): 36.2 mol/(l × s)
[3]
  absorption maximum: 411.5 nm

## CC12CCC(C(=O)C1=O)C2(C)C (stereo not drawn) [camphorquinone]
[2]
  absorption maximum: 468 nm

## C[CH2][Ge]([CH2]C)([C](=O)c1ccccc1)[C](=O)c1ccccc1 [Bis-AG, bisbenzoyldiethylgermanium]
[1]; [4]
  DBC (double bond conversion): 84%
  Rp × 10^−3 (polymerization rate): 99.2 mol/(l × s)
[1]; [5]
  DBC (double bond conversion): 72%
  Rp × 10^−3 (polymerization rate): 98.5 mol/(l × s)
[1]; PI concentration 0.0014 mmol/g
  DBC (double bond conversion): 56%
  Rp × 10^−3 (polymerization rate): 61.0 mol/(l × s)
[1]; PI concentration 0.0055 mmol/g
  DBC (double bond conversion): 66%
  Rp × 10^−3 (polymerization rate): 85.6 mol/(l × s)
[1]; resin mixture D3MA:UDMA:bis-GMA=1:1:1
  curing time compared with campherquinone/amine: halved
[1]; resin mixture D3MA:UDMA:bis-GMA=1:1:1, same formulation
  polymerization rate (Rp) compared with camphorquinone in combination with an amine accelerator: almost double
[3]
  absorption maximum: 418.5 nm
